Measured values as given in PubChem BioAssay (NCI).
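All cell lines were grown in 96-well plates and treated with compound for 48 hours. GI50 marks 50% less growth. TGI: total growth inhibition.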

Columns and labels:
Assay in all cases: DTP human tumour cell line panel, 48 h
SNB-75 CNS = test system: SNB-75 CNS
DU-145 prostate = test system: DU-145 prostate
SF-539 CNS = test system: SF-539 CNS
UACC-62 melanoma = test system: UACC-62 melanoma
HS 578T breast = test system: HS 578T breast
NCI-H522 lung = test system: NCI-H522 lung
HL-60(TB) leukemia = test system: HL-60(TB) leukemia
OVCAR-4 ovarian = test system: OVCAR-4 ovarian
U251 CNS = test system: U251 CNS
COLO 205 colon = test system: COLO 205 colon
SNB-19 CNS = test system: SNB-19 CNS
MALME-3M melanoma = test system: MALME-3M melanoma
LOX IMVI melanoma = test system: LOX IMVI melanoma
TK-10 renal = test system: TK-10 renal
PC-3 prostate = test system: PC-3 prostate
SR leukemia = test system: SR leukemia
M14 melanoma = test system: M14 melanoma
CCRF-CEM leukemia = test system: CCRF-CEM leukemia
EKVX NSCLC = test system: EKVX NSCLC
SK-MEL-2 melanoma = test system: SK-MEL-2 melanoma
OVCAR-3 ovarian = test system: OVCAR-3 ovarian
HT29 colon = test system: HT29 colon
HCT-116 colon = test system: HCT-116 colon
BT-549 breast = test system: BT-549 breast
A549 NSCLC = test system: A549 NSCLC
SK-MEL-28 melanoma = test system: SK-MEL-28 melanoma
HCC-2998 colon = test system: HCC-2998 colon
MCF7 breast = test system: MCF7 breast
RXF 393 renal = test system: RXF 393 renal
MDA-MB-231 breast = test system: MDA-MB-231 breast
HOP-92 NSCLC = test system: HOP-92 NSCLC
MDA-MB-435 = test system: MDA-MB-435
MOLT-4 leukemia = test system: MOLT-4 leukemia
SK-OV-3 ovarian = test system: SK-OV-3 ovarian
SN12C renal = test system: SN12C renal
OVCAR-5 ovarian = test system: OVCAR-5 ovarian
SF-268 CNS = test system: SF-268 CNS
HCT-15 colon = test system: HCT-15 colon
KM12 colon = test system: KM12 colon
SK-MEL-5 melanoma = test system: SK-MEL-5 melanoma
T-47D breast = test system: T-47D breast
NCI/ADR-RES ovarian = test system: NCI/ADR-RES ovarian
OVCAR-8 ovarian = test system: OVCAR-8 ovarian
UACC-257 melanoma = test system: UACC-257 melanoma
IGROV1 ovarian = test system: IGROV1 ovarian
A498 renal = test system: A498 renal
786-0 renal = test system: 786-0 renal
HOP-62 NSCLC = test system: HOP-62 NSCLC
SF-295 CNS = test system: SF-295 CNS
K-562 leukemia = test system: K-562 leukemia
UO-31 renal = test system: UO-31 renal
NCI-H23 lung = test system: NCI-H23 lung
NCI-H460 lung = test system: NCI-H460 lung
NCI-H226 lung = test system: NCI-H226 lung
ACHN renal = test system: ACHN renal
SW-620 colon = test system: SW-620 colon
CAKI-1 renal = test system: CAKI-1 renal

Q: Which GI50 (SNB-75 CNS) does the source give for Cc1cc(Cl)ccc1Nc1nc(C(F)(F)F)ccc1C(=O)N/N=C/c1ccccc1Cl here?
A: 2290 nM

Q: And the TGI (SNB-75 CNS)?
A: > 29300 nM

Q: And the GI50 (DU-145 prostate)?
A: 1620 nM

Q: And the TGI (DU-145 prostate)?
A: > 27600 nM

Q: What about the GI50 (SF-539 CNS) of the same compound?
A: 1220 nM

Q: What about the TGI (SF-539 CNS) of the same compound?
A: 3600 nM

Q: And the GI50 (UACC-62 melanoma)?
A: 1430 nM

Q: What about the TGI (UACC-62 melanoma) of the same compound?
A: 5360 nM

Q: What about the GI50 (HS 578T breast) of the same compound?
A: 1260 nM

Q: And the TGI (HS 578T breast)?
A: 5670 nM

Q: What about the GI50 (NCI-H522 lung) of the same compound?
A: 1480 nM

Q: What about the TGI (NCI-H522 lung) of the same compound?
A: 6770 nM

Q: And the GI50 (HL-60(TB) leukemia)?
A: 1120 nM

Q: And the GI50 (OVCAR-4 ovarian)?
A: 422 nM

Q: And the TGI (OVCAR-4 ovarian)?
A: > 100000 nM

Q: And the GI50 (U251 CNS)?
A: 526 nM

Q: What about the TGI (U251 CNS) of the same compound?
A: 4860 nM

Q: And the GI50 (COLO 205 colon)?
A: 727 nM

Q: What about the TGI (COLO 205 colon) of the same compound?
A: 2100 nM

Q: And the GI50 (SNB-19 CNS)?
A: 1720 nM

Q: And the TGI (SNB-19 CNS)?
A: 14500 nM

Q: And the GI50 (MALME-3M melanoma)?
A: 1540 nM

Q: What about the TGI (MALME-3M melanoma) of the same compound?
A: 6180 nM

Q: What about the GI50 (LOX IMVI melanoma) of the same compound?
A: 530 nM

Q: And the TGI (LOX IMVI melanoma)?
A: 2940 nM

Q: What about the GI50 (TK-10 renal) of the same compound?
A: 1000 nM

Q: What about the TGI (TK-10 renal) of the same compound?
A: 16100 nM

Q: And the GI50 (PC-3 prostate)?
A: 866 nM

Q: What about the TGI (PC-3 prostate) of the same compound?
A: > 26000 nM

Q: What about the GI50 (SR leukemia) of the same compound?
A: 188 nM

Q: What about the TGI (SR leukemia) of the same compound?
A: 768 nM

Q: What about the GI50 (M14 melanoma) of the same compound?
A: 874 nM

Q: And the TGI (M14 melanoma)?
A: 7830 nM

Q: And the GI50 (CCRF-CEM leukemia)?
A: 341 nM

Q: And the TGI (CCRF-CEM leukemia)?
A: 4780 nM

Q: And the GI50 (EKVX NSCLC)?
A: 894 nM

Q: What about the TGI (EKVX NSCLC) of the same compound?
A: 7230 nM

Q: And the GI50 (SK-MEL-2 melanoma)?
A: 3220 nM

Q: What about the TGI (SK-MEL-2 melanoma) of the same compound?
A: 18800 nM

Q: And the GI50 (OVCAR-3 ovarian)?
A: 239 nM

Q: And the TGI (OVCAR-3 ovarian)?
A: 2150 nM

Q: What about the GI50 (HT29 colon) of the same compound?
A: 2010 nM

Q: What about the TGI (HT29 colon) of the same compound?
A: > 41900 nM

Q: What about the GI50 (HCT-116 colon) of the same compound?
A: 439 nM

Q: What about the TGI (HCT-116 colon) of the same compound?
A: 3180 nM

Q: And the GI50 (BT-549 breast)?
A: 1120 nM

Q: And the TGI (BT-549 breast)?
A: 5750 nM

Q: And the GI50 (A549 NSCLC)?
A: 1770 nM

Q: And the TGI (A549 NSCLC)?
A: 11600 nM

Q: And the GI50 (SK-MEL-28 melanoma)?
A: 1380 nM

Q: And the TGI (SK-MEL-28 melanoma)?
A: 6880 nM

Q: And the GI50 (HCC-2998 colon)?
A: 1340 nM

Q: What about the TGI (HCC-2998 colon) of the same compound?
A: > 100000 nM

Q: What about the GI50 (MCF7 breast) of the same compound?
A: 896 nM

Q: What about the TGI (MCF7 breast) of the same compound?
A: 10600 nM

Q: What about the GI50 (RXF 393 renal) of the same compound?
A: 1480 nM

Q: What about the TGI (RXF 393 renal) of the same compound?
A: 4410 nM

Q: And the GI50 (MDA-MB-231 breast)?
A: 1130 nM

Q: What about the TGI (MDA-MB-231 breast) of the same compound?
A: 5530 nM

Q: And the GI50 (HOP-92 NSCLC)?
A: 2140 nM

Q: And the TGI (HOP-92 NSCLC)?
A: > 24600 nM

Q: What about the GI50 (MDA-MB-435) of the same compound?
A: 2290 nM

Q: What about the TGI (MDA-MB-435) of the same compound?
A: 20900 nM

Q: What about the GI50 (MOLT-4 leukemia) of the same compound?
A: 1290 nM

Q: And the TGI (MOLT-4 leukemia)?
A: > 100000 nM

Q: What about the GI50 (SK-OV-3 ovarian) of the same compound?
A: 874 nM

Q: What about the TGI (SK-OV-3 ovarian) of the same compound?
A: 4950 nM

Q: And the GI50 (SN12C renal)?
A: 1450 nM

Q: What about the TGI (SN12C renal) of the same compound?
A: > 54300 nM

Q: And the GI50 (OVCAR-5 ovarian)?
A: 1650 nM

Q: What about the TGI (OVCAR-5 ovarian) of the same compound?
A: 11100 nM

Q: What about the GI50 (SF-268 CNS) of the same compound?
A: 811 nM

Q: And the TGI (SF-268 CNS)?
A: 6050 nM

Q: What about the GI50 (HCT-15 colon) of the same compound?
A: 438 nM

Q: And the TGI (HCT-15 colon)?
A: 16500 nM

Q: What about the GI50 (KM12 colon) of the same compound?
A: 902 nM

Q: And the TGI (KM12 colon)?
A: 8140 nM

Q: What about the GI50 (SK-MEL-5 melanoma) of the same compound?
A: 1390 nM

Q: And the TGI (SK-MEL-5 melanoma)?
A: 3510 nM

Q: And the GI50 (T-47D breast)?
A: 824 nM

Q: What about the TGI (T-47D breast) of the same compound?
A: 4630 nM

Q: What about the GI50 (NCI/ADR-RES ovarian) of the same compound?
A: 1190 nM

Q: What about the TGI (NCI/ADR-RES ovarian) of the same compound?
A: 7160 nM

Q: And the GI50 (OVCAR-8 ovarian)?
A: 2160 nM

Q: What about the TGI (OVCAR-8 ovarian) of the same compound?
A: > 92700 nM

Q: And the GI50 (UACC-257 melanoma)?
A: 2240 nM

Q: And the TGI (UACC-257 melanoma)?
A: 10200 nM

Q: What about the GI50 (IGROV1 ovarian) of the same compound?
A: 1570 nM

Q: And the TGI (IGROV1 ovarian)?
A: > 42200 nM

Q: And the TGI (A498 renal)?
A: 3140 nM

Q: What about the GI50 (786-0 renal) of the same compound?
A: 672 nM

Q: What about the TGI (786-0 renal) of the same compound?
A: 2670 nM

Q: What about the GI50 (HOP-62 NSCLC) of the same compound?
A: 836 nM

Q: What about the TGI (HOP-62 NSCLC) of the same compound?
A: 2720 nM

Q: What about the GI50 (SF-295 CNS) of the same compound?
A: 691 nM

Q: What about the TGI (SF-295 CNS) of the same compound?
A: 4120 nM

Q: And the GI50 (K-562 leukemia)?
A: 588 nM

Q: And the GI50 (UO-31 renal)?
A: 1290 nM

Q: And the TGI (UO-31 renal)?
A: 4150 nM

Q: What about the GI50 (NCI-H23 lung) of the same compound?
A: 775 nM

Q: And the TGI (NCI-H23 lung)?
A: 4890 nM

Q: And the GI50 (NCI-H460 lung)?
A: 850 nM

Q: What about the TGI (NCI-H460 lung) of the same compound?
A: 4840 nM

Q: And the GI50 (NCI-H226 lung)?
A: 1300 nM

Q: What about the TGI (NCI-H226 lung) of the same compound?
A: 5070 nM

Q: What about the GI50 (ACHN renal) of the same compound?
A: 1530 nM

Q: And the TGI (ACHN renal)?
A: 6860 nM

Q: And the GI50 (SW-620 colon)?
A: 667 nM

Q: What about the TGI (SW-620 colon) of the same compound?
A: 6020 nM

Q: And the GI50 (CAKI-1 renal)?
A: 2820 nM

Q: What about the TGI (CAKI-1 renal) of the same compound?
A: 7720 nM
